{"source": "patent US20240108006A1", "about": "“PESTICIDALLY ACTIVE HETEROAROMATIC COMPOUNDS” (SYNGENTA CROP PROTECTION AG, priority 2021, published 2024)"}
{"system": "Plutella xylostella", "experiment": "Example B8: Plutella xylostella (diamond back moth), artificial diet 24-well, eggs", "assay_type": "in vivo", "details": "192 h, application rate of 200 ppm, 8 days after infestation, read-out: effect in at least one of the two categories (mortality or growth inhibition)", "method": "Example B8: Plutella xylostella (Diamond Back Moth)\n24-well microtiter plates with artificial diet were treated with aqueous test solutions prepared from 10,000 ppm DMSO stock solutions by pipetting. After drying, Plutella eggs were pipetted through a plastic stencil onto a gel blotting paper and the plate was closed with it. The samples were assessed for mortality and growth inhibition in comparison to untreated samples 8 days after infestation.\nThe following compounds gave an effect of at least 80% in at least one of the two categories (mortality or growth inhibition) at an application rate of 200 ppm: […]", "units": {"percent effect (mortality or growth inhibition) at 200 ppm": "%"}}
{"smiles": "C[C@H](NC(=O)Nc1cc(Cl)ccc1C(F)(F)F)c1ncnn1-c1ncccn1", "note": "[Example P12, 1-[5-chloro-2-(trifluoromethyl)phenyl]-3-[(1S)-1-(2-pyrimidin-2-yl-1,2,4-triazol-3-yl)ethyl]urea]", "percent effect (mortality or growth inhibition) at 200 ppm": "≥ 80"}
{"smiles": "C[C@H](NC(=O)Nc1nc(C2CC2)cc(C2CC2)n1)c1ncnn1-c1ncccn1", "note": "[Example P33, 1-(4,6-dicyclopropylpyrimidin-2-yl)-3-[(1S)-1-(2-pyrimidin-2-yl-1,2,4-triazol-3-yl)ethyl]urea]", "percent effect (mortality or growth inhibition) at 200 ppm": "≥ 80"}
{"smiles": "C[C@H](NC(=O)Nc1cc(OCC#N)c(Cl)cc1Cl)c1ncnn1-c1ncccn1", "note": "[Example P161, 1-[2,4-dichloro-5-(cyanomethoxy)phenyl]-3-[(1S)-1-(2-pyrimidin-2-yl-1,2,4-triazol-3-yl)ethyl]urea]", "percent effect (mortality or growth inhibition) at 200 ppm": "≥ 80"}
{"smiles": "CC(NC(=O)N1CCc2cc(C(F)(F)F)ncc21)c1ncnn1-c1ccc(C#N)cn1", "note": "(stereo not drawn) [Example P171, N-[1-[2-(5-cyano-2-pyridyl)-1,2,4-triazol-3-yl]ethyl]-5-(trifluoromethyl)-2,3-dihydropyrrolo[2,3-c]pyridine-1-carboxamide]", "percent effect (mortality or growth inhibition) at 200 ppm": "≥ 80"}
{"smiles": "C[C@H](NC(=O)Nc1cc(C(F)(F)F)c(Cl)cc1Cl)c1ncnn1-c1ccc(C(=O)N2CCOCC2)cn1", "note": "[Example P175, 1-[2,4-dichloro-5-(trifluoromethyl)phenyl]-3-[(1S)-1-[2-[5-(morpholine-4-carbonyl)-2-pyridyl]-1,2,4-triazol-3-yl]ethyl]urea]", "percent effect (mortality or growth inhibition) at 200 ppm": "≥ 80"}
{"smiles": "C[C@H](NC(=O)Nc1cc(Cl)c(OC(F)(F)C(F)C(F)(F)F)cc1Cl)c1ncnn1-c1ncccn1", "note": "(stereo partly drawn) [Example P211, 1-[2,5-dichloro-4-(1,1,2,3,3,3-hexafluoropropoxy)phenyl]-3-[(1S)-1-(2-pyrimidin-2-yl-1,2,4-triazol-3-yl)ethyl]urea]", "percent effect (mortality or growth inhibition) at 200 ppm": "≥ 80"}
{"smiles": "COC(=O)c1cc(NC(=O)N[C@@H](C)c2ncnn2-c2ncccn2)c(F)cc1Br", "note": "[Example P228, methyl 2-bromo-4-fluoro-5-[[(1S)-1-(2-pyrimidin-2-yl-1,2,4-triazol-3-yl)ethyl]carbamoylamino]benzoate]", "percent effect (mortality or growth inhibition) at 200 ppm": "≥ 80"}
{"smiles": "CC(=O)c1cc(NC(=O)N[C@@H](C)c2ncnn2-c2ncccn2)c(Cl)cc1Cl", "note": "[Example P229, 1-(5-acetyl-2,4-dichloro-phenyl)-3-[(1S)-1-(2-pyrimidin-2-yl-1,2,4-triazol-3-yl)ethyl]urea]", "percent effect (mortality or growth inhibition) at 200 ppm": "≥ 80"}
{"system": "Chilo suppressalis", "experiment": "Example B1: Chilo suppressalis (striped rice stemborer), artificial diet, L2 larvae", "assay_type": "in vivo", "details": "144 h, application rate of 200 ppm, 6 days after infestation, read-out: control in at least one of the three categories (mortality, anti-feedant effect, or growth inhibition)", "method": "Example B1: Chilo suppressalis (Striped Rice Stemborer)\n24-well microtiter plates with artificial diet were treated with aqueous test solutions prepared from 10,000 ppm DMSO stock solutions by pipetting. After drying, the plates were infested with L2 larvae (6-8 per well). The samples were assessed for mortality, anti-feeding effect, and growth inhibition in comparison to untreated samples 6 days after infestation. Control of Chilo suppressalis by a test sample is given when at least one of the categories mortality, anti-feedant effect, and growth inhibition is higher than the untreated sample.", "units": {"percent control (mortality, anti-feedant effect or growth inhibition) at 200 ppm": "%"}}
{"smiles": "C[C@H](NC(=O)Nc1ccc(F)cc1C(C)(F)F)c1ncnn1-c1ncccn1", "note": "[Example P45, 1-[2-(1,1-difluoroethyl)-4-fluoro-phenyl]-3-[(1S)-1-(2-pyrimidin-2-yl-1,2,4-triazol-3-yl)ethyl]urea]", "percent control (mortality, anti-feedant effect or growth inhibition) at 200 ppm": "≥ 80"}
{"smiles": "Cc1cc(Br)ccc1NC(=O)N[C@@H](C)c1ncnn1-c1ncccn1", "note": "[Example P106, 1-(4-bromo-2-methyl-phenyl)-3-[(1S)-1-(2-pyrimidin-2-yl-1,2,4-triazol-3-yl)ethyl]urea]", "percent control (mortality, anti-feedant effect or growth inhibition) at 200 ppm": "≥ 80"}
{"smiles": "C[C@H](NC(=O)Nc1ccc(F)cc1C(F)(F)F)c1ncnn1-c1ncccn1", "note": "[Example P116, 1-[4-fluoro-2-(trifluoromethyl)phenyl]-3-[(1S)-1-(2-pyrimidin-2-yl-1,2,4-triazol-3-yl)ethyl]urea]", "percent control (mortality, anti-feedant effect or growth inhibition) at 200 ppm": "≥ 80"}
{"smiles": "COc1cc(S(C)(=O)=O)c(NC(=O)N[C@@H](C)c2ncnn2-c2ncccn2)cc1Cl", "note": "[Example P192, 1-(5-chloro-4-methoxy-2-methylsulfonyl-phenyl)-3-[(1S)-1-(2-pyrimidin-2-yl-1,2,4-triazol-3-yl)ethyl]urea]", "percent control (mortality, anti-feedant effect or growth inhibition) at 200 ppm": "≥ 80"}
{"smiles": "Cc1cc(C)c(N2CCCC2=O)cc1NC(=O)N[C@@H](C)c1ncnn1-c1ncccn1", "note": "[Example P212, 1-[2,4-dimethyl-5-(2-oxopyrrolidin-1-yl)phenyl]-3-[(1S)-1-(2-pyrimidin-2-yl-1,2,4-triazol-3-yl)ethyl]urea]", "percent control (mortality, anti-feedant effect or growth inhibition) at 200 ppm": "≥ 80"}
{"smiles": "COc1cc(NC(=O)N[C@@H](C)c2ncnn2-c2ncccn2)c(Br)cc1Cl", "note": "[Example P294, 1-(2-bromo-4-chloro-5-methoxy-phenyl)-3-[(1S)-1-(2-pyrimidin-2-yl-1,2,4-triazol-3-yl)ethyl]urea]", "percent control (mortality, anti-feedant effect or growth inhibition) at 200 ppm": "≥ 80"}
{"smiles": "Cc1cc(NC(=O)N[C@@H](C)c2ncnn2-c2ncccn2)c(C)cc1F", "note": "[Example P295, 1-(4-fluoro-2,5-dimethyl-phenyl)-3-[(1S)-1-(2-pyrimidin-2-yl-1,2,4-triazol-3-yl)ethyl]urea]", "percent control (mortality, anti-feedant effect or growth inhibition) at 200 ppm": "≥ 80"}
{"smiles": "Cc1cc(F)c(C#N)cc1NC(=O)N[C@@H](C)c1ncnn1-c1ncccn1", "note": "[Example P296, 1-(5-cyano-4-fluoro-2-methyl-phenyl)-3-[(1S)-1-(2-pyrimidin-2-yl-1,2,4-triazol-3-yl)ethyl]urea]", "percent control (mortality, anti-feedant effect or growth inhibition) at 200 ppm": "≥ 80"}
{"smiles": "Cc1cc(F)c(C(F)(F)F)cc1NC(=O)N[C@@H](C)c1ncnn1-c1ncccn1", "note": "[Example P297, 1-[4-fluoro-2-methyl-5-(trifluoromethyl)phenyl]-3-[(1S)-1-(2-pyrimidin-2-yl-1,2,4-triazol-3-yl)ethyl]urea]", "percent control (mortality, anti-feedant effect or growth inhibition) at 200 ppm": "≥ 80"}
{"smiles": "C[C@H](NC(=O)Nc1cc2c(cc1Br)CCC2)c1ncnn1-c1ncccn1", "note": "[Example P303, 1-(6-bromoindan-5-yl)-3-[(1S)-1-(2-pyrimidin-2-yl-1,2,4-triazol-3-yl)ethyl]urea]", "percent control (mortality, anti-feedant effect or growth inhibition) at 200 ppm": "≥ 80"}
{"smiles": "C[C@@H](c1ncnn1-c1ncccn1)N1CCCN(c2cc(OC(F)(F)C(F)F)c(Cl)cc2Cl)C1=O", "note": "[Example P311, 1-[2,4-dichloro-5-(1,1,2,2-tetrafluoroethoxy)phenyl]-3-[(1S)-1-(2-pyrimidin-2-yl-1,2,4-triazol-3-yl)ethyl]hexahydropyrimidin-2-one]", "percent control (mortality, anti-feedant effect or growth inhibition) at 200 ppm": "≥ 80"}
{"smiles": "Cc1cc(Cl)ncc1NC(=O)N[C@@H](C)c1ncnn1-c1ncccn1", "note": "[Example P318, 1-(6-chloro-4-methyl-3-pyridyl)-3-[(1S)-1-(2-pyrimidin-2-yl-1,2,4-triazol-3-yl)ethyl]urea]", "percent control (mortality, anti-feedant effect or growth inhibition) at 200 ppm": "≥ 80"}
{"smiles": "C[C@H](NC(=O)Nc1cc2c(cc1Br)CCC(=O)N2)c1ncnn1-c1ncccn1", "note": "[Example P322, 1-(6-bromo-2-oxo-3,4-dihydro-1H-quinolin-7-yl)-3-[(1S)-1-(2-pyrimidin-2-yl-1,2,4-triazol-3-yl)ethyl]urea]", "percent control (mortality, anti-feedant effect or growth inhibition) at 200 ppm": "≥ 80"}
{"smiles": "Cc1cc([N+](=O)[O-])c(C)cc1NC(=O)N[C@@H](C)c1ncnn1-c1ncccn1", "note": "[Example P323, 1-(2,5-dimethyl-4-nitro-phenyl)-3-[(1S)-1-(2-pyrimidin-2-yl-1,2,4-triazol-3-yl)ethyl]urea]", "percent control (mortality, anti-feedant effect or growth inhibition) at 200 ppm": "≥ 80"}
{"smiles": "C[C@H](NC(=O)Nc1cc(F)c(Br)cc1F)c1ncnn1-c1ncccn1", "note": "[Example P339, 1-(4-bromo-2,5-difluoro-phenyl)-3-[(1S)-1-(2-pyrimidin-2-yl-1,2,4-triazol-3-yl)ethyl]urea]", "percent control (mortality, anti-feedant effect or growth inhibition) at 200 ppm": "≥ 80"}
{"smiles": "Cc1cc(Br)ncc1NC(=O)N[C@@H](C)c1ncnn1-c1ncccn1", "note": "[Example P342, 1-(6-bromo-4-methyl-3-pyridyl)-3-[(1S)-1-(2-pyrimidin-2-yl-1,2,4-triazol-3-yl)ethyl]urea]", "percent control (mortality, anti-feedant effect or growth inhibition) at 200 ppm": "≥ 80"}
{"smiles": "Cc1cc2c(cc1NC(=O)N[C@@H](C)c1ncnn1-c1ncccn1)OCO2", "note": "[Example P344, 1-(6-methyl-1,3-benzodioxol-5-yl)-3-[(1S)-1-(2-pyrimidin-2-yl-1,2,4-triazol-3-yl)ethyl]urea]", "percent control (mortality, anti-feedant effect or growth inhibition) at 200 ppm": "≥ 80"}
{"smiles": "C[C@H](NC(=O)Nc1cc(Br)c(F)cc1I)c1ncnn1-c1ncccn1", "note": "[Example P371, 1-(5-bromo-4-fluoro-2-iodo-phenyl)-3-[(1S)-1-(2-pyrimidin-2-yl-1,2,4-triazol-3-yl)ethyl]urea]", "percent control (mortality, anti-feedant effect or growth inhibition) at 200 ppm": "≥ 80"}
{"smiles": "COc1cc(C)c(NC(=O)N[C@@H](C)c2ncnn2-c2ncccn2)cc1F", "note": "[Example P378, 1-(5-fluoro-4-methoxy-2-methyl-phenyl)-3-[(1S)-1-(2-pyrimidin-2-yl-1,2,4-triazol-3-yl)ethyl]urea]", "percent control (mortality, anti-feedant effect or growth inhibition) at 200 ppm": "≥ 80"}
{"smiles": "C[C@H](NC(=O)Nc1cc(Cl)c(F)cc1F)c1ncnn1-c1ncccn1", "note": "[Example P379, 1-(5-chloro-2,4-difluoro-phenyl)-3-[(1S)-1-(2-pyrimidin-2-yl-1,2,4-triazol-3-yl)ethyl]urea]", "percent control (mortality, anti-feedant effect or growth inhibition) at 200 ppm": "≥ 80"}
{"smiles": "Cc1cc(NC(=O)N[C@@H](C)c2ncnn2-c2ncccn2)c(Cl)cc1F", "note": "[Example P385, 1-(2-chloro-4-fluoro-5-methyl-phenyl)-3-[(1S)-1-(2-pyrimidin-2-yl-1,2,4-triazol-3-yl)ethyl]urea]", "percent control (mortality, anti-feedant effect or growth inhibition) at 200 ppm": "≥ 80"}
{"smiles": "C[C@H](NC(=O)Nc1cc(C(F)(F)F)c(Cl)cc1F)c1ncnn1-c1ncccn1", "note": "[Example P393, 1-[4-chloro-2-fluoro-5-(trifluoromethyl)phenyl]-3-[(1S)-1-(2-pyrimidin-2-yl-1,2,4-triazol-3-yl)ethyl]urea]", "percent control (mortality, anti-feedant effect or growth inhibition) at 200 ppm": "≥ 80"}
